What was measured:
Experiment in all cases: relative viability (nuclei count vs DMSO), 5 days (fraction); higher = more cells survive
[1] = system: NCI-H1944
Procedure, shortened: (§1)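 Values are medians from duplicate plates. Each reflects relative viability, defined as the nuclei count of treated wells over that of vehicle wells. Lung cancer cell lines in 1536-well plates were pin-tool dosed one day after seeding with one drug alone or with a fixed anchor-drug dose plus five library-drug doses (not always all listed) in √10 steps, then fixed, stained and imaged at 4× after 5 days.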

[2] = system: BEN
Procedure, shortened: as §1

[3] = system: LCLC-97TM1
Procedure, shortened: as §1

[4] = system: PC-3 [JPC-3]
Procedure, shortened: as §1

[5] = system: LC-2-ad
Procedure, shortened: as §1

[6] = system: HCC-15
Procedure, shortened: as §1

[7] = system: EKVX
Procedure, shortened: as §1

[8] = system: HCC-827
Procedure, shortened: as §1

[9] = system: SK-MES-1
Procedure, shortened: as §1

[10] = system: COR-L23
Procedure, shortened: as §1

[11] = system: NCI-H1755
Procedure, shortened: as §1

[12] = system: NCI-H3122
Procedure, shortened: as §1

[13] = system: NCI-H1993
Procedure, shortened: as §1

[14] = system: COR-L 105
Procedure, shortened: as §1

[15] = system: NCI-H2342
Procedure, shortened: as §1

[16] = system: SK-LU-1
Procedure, shortened: as §1

[17] = system: NCI-H596
Procedure, shortened: as §1

[18] = system: LU99A
Procedure, shortened: as §1

[19] = system: NCI-H1915
Procedure, shortened: as §1

[20] = system: RERF-LC-KJ
Procedure, shortened: as §1

[21] = system: NCI-H522
Procedure, shortened: as §1

Work on `COCC1(CO)C(=O)C2CCN1CC2` (stereo unspecified) [PRIMA-1MET] + CCNC(=O)c1noc(-c2cc(C(C)C)c(O)cc2O)c1-c1ccc(CN2CCOCC2)cc1 [Luminespib] (partner 0.01 µM) yielded a relative viability ([1]; first compound 0.2 µM) of 0.671, a relative viability ([1]; first compound 0.6325 µM) of 0.612 and a relative viability ([1]; first compound 2 µM) of 0.61. It also gave a relative viability ([1]; first compound 6.325 µM) of 0.685, a relative viability ([1]; first compound 20 µM) of 0.724 and a relative viability ([2]; first compound 0.2 µM) of 0.35. It also gave a relative viability ([2]; first compound 0.6325 µM) of 0.276, a relative viability ([2]; first compound 6.325 µM) of 0.24 and a relative viability ([2]; first compound 20 µM) of 0.18. For the same compound, the relative viability ([3]; first compound 0.2 µM) was 0.824, the relative viability ([3]; first compound 0.6325 µM) was 0.531 and the relative viability ([3]; first compound 2 µM) was 0.877. It also gave a relative viability ([3]; first compound 6.325 µM) of 0.841, a relative viability ([3]; first compound 20 µM) of 0.674 and a relative viability ([4]; first compound 0.2 µM) of 0.849. The relative viability ([4]; first compound 0.6325 µM) was 0.649, the relative viability ([4]; first compound 2 µM) was 0.679 and the relative viability ([4]; first compound 6.325 µM) was 0.731. For the same compound, the relative viability ([4]; first compound 20 µM) was 0.546, the relative viability ([5]; first compound 0.2 µM) was 1.26 and the relative viability ([5]; first compound 2 µM) was 0.902. The relative viability ([5]; first compound 6.325 µM) was 1.16, the relative viability ([5]; first compound 20 µM) was 0.887 and the relative viability ([6]; first compound 0.2 µM) was 0.264. The relative viability ([6]; first compound 0.6325 µM) was 0.232, the relative viability ([6]; first compound 2 µM) was 0.393 and the relative viability ([6]; first compound 6.325 µM) was 0.408. It also gave a relative viability ([6]; first compound 20 µM) of 0.197, a relative viability ([7]; first compound 0.2 µM) of 1.03 and a relative viability ([7]; first compound 0.6325 µM) of 0.808. It also gave a relative viability ([7]; first compound 6.325 µM) of 0.805, a relative viability ([7]; first compound 20 µM) of 0.729 and a relative viability ([8]; first compound 0.2 µM) of 0.761. For the same compound, the relative viability ([8]; first compound 0.6325 µM) was 0.624, the relative viability ([8]; first compound 2 µM) was 0.303 and the relative viability ([8]; first compound 6.325 µM) was 0.477. The relative viability ([8]; first compound 20 µM) was 0.447, the relative viability ([9]; first compound 0.2 µM) was 1.04 and the relative viability ([9]; first compound 0.6325 µM) was 0.579. For the same compound, the relative viability ([9]; first compound 2 µM) was 0.885, the relative viability ([9]; first compound 6.325 µM) was 0.829 and the relative viability ([9]; first compound 20 µM) was 0.746. For the same compound, the relative viability ([10]; first compound 0.2 µM) was 0.691, the relative viability ([10]; first compound 0.6325 µM) was 0.528 and the relative viability ([10]; first compound 2 µM) was 0.711. It also gave a relative viability ([10]; first compound 6.325 µM) of 0.578, a relative viability ([10]; first compound 20 µM) of 0.0159 and a relative viability ([11]; first compound 0.2 µM) of 0.527. It also gave a relative viability ([11]; first compound 0.6325 µM) of 0.332, a relative viability ([11]; first compound 2 µM) of 0.404 and a relative viability ([11]; first compound 6.325 µM) of 0.51. It also gave a relative viability ([11]; first compound 20 µM) of 0.454, a relative viability ([12]; first compound 0.2 µM) of 0.0725 and a relative viability ([12]; first compound 0.6325 µM) of 0.0963. For the same compound, the relative viability ([12]; first compound 2 µM) was 0.0983, the relative viability ([12]; first compound 6.325 µM) was 0.0835 and the relative viability ([12]; first compound 20 µM) was 0.0732. The relative viability ([13]; first compound 0.2 µM) was 1.04, the relative viability ([13]; first compound 0.6325 µM) was 0.829 and the relative viability ([13]; first compound 2 µM) was 0.959. The relative viability ([13]; first compound 6.325 µM) was 0.996, the relative viability ([13]; first compound 20 µM) was 0.758 and the relative viability ([14]; first compound 0.2 µM) was 0.775. For the same compound, the relative viability ([14]; first compound 0.6325 µM) was 0.687, the relative viability ([14]; first compound 2 µM) was 0.845 and the relative viability ([14]; first compound 6.325 µM) was 0.808. The relative viability ([14]; first compound 20 µM) was 0.111, the relative viability ([15]; first compound 0.2 µM) was 0.722 and the relative viability ([15]; first compound 0.6325 µM) was 0.696. The relative viability ([15]; first compound 2 µM) was 0.57, the relative viability ([15]; first compound 6.325 µM) was 0.675 and the relative viability ([15]; first compound 20 µM) was 0.602. It also gave a relative viability ([16]; first compound 0.2 µM) of 0.203, a relative viability ([16]; first compound 0.6325 µM) of 0.199 and a relative viability ([16]; first compound 2 µM) of 0.199. The relative viability ([16]; first compound 6.325 µM) was 0.212, the relative viability ([16]; first compound 20 µM) was 0.137 and the relative viability ([17]; first compound 0.2 µM) was 0.921. It also gave a relative viability ([17]; first compound 0.6325 µM) of 0.809, a relative viability ([17]; first compound 2 µM) of 0.858 and a relative viability ([17]; first compound 6.325 µM) of 0.936. It also gave a relative viability ([17]; first compound 20 µM) of 0.109, a relative viability ([18]; first compound 0.2 µM) of 0.216 and a relative viability ([18]; first compound 0.6325 µM) of 0.233. The relative viability ([18]; first compound 2 µM) was 0.203, the relative viability ([18]; first compound 6.325 µM) was 0.221 and the relative viability ([18]; first compound 20 µM) was 0.0965. The relative viability ([19]; first compound 0.2 µM) was 0.868, the relative viability ([19]; first compound 0.6325 µM) was 0.506 and the relative viability ([19]; first compound 6.325 µM) was 0.853. The relative viability ([19]; first compound 20 µM) was 0.697, the relative viability ([20]; first compound 0.2 µM) was 1.42 and the relative viability ([20]; first compound 0.6325 µM) was 1.29. For the same compound, the relative viability ([20]; first compound 2 µM) was 1.36, the relative viability ([20]; first compound 6.325 µM) was 1.37 and the relative viability ([20]; first compound 20 µM) was 1.03. The relative viability ([21]; first compound 0.2 µM) was 1.09, the relative viability ([21]; first compound 0.6325 µM) was 0.899 and the relative viability ([21]; first compound 2 µM) was 1.1. The relative viability ([21]; first compound 6.325 µM) was 0.989 and the relative viability ([21]; first compound 20 µM) was 0.838.
